Measurements: patent publication US8343458B2, “Probes for in vivo targeting of active cysteine proteases” (The Board of Trustees of the Leland Stanford Junior …, priority 2008, dated 2013)
Entries after “also recorded” stand apart in the source; their conditions may differ. One block for each compound: values may come before it.

What was measured:
cathepsins B and L = test: Labeling of intact tumor cells (SDS-PAGE, gel scan); assay type: cell-based, mouse (C2C12/Ras), human (MDA-MB-435)
From the text: FIG. 2 is a series of figures which, taken together, show the structure and function of representative in vivo probes. FIG. 2A is a schematic drawing of a chelator—conjugated probe, illustrating several component moieties. FIGS. 2B and 2C are gels showing expression and activity of enzyme targets of such probe, with a radionuclide label attached to the illustrated structure, showing the expression and activity of CB in a mouse myoblast cell line C2C12Ras and human breast cancer cell line MDA-MB-435. […] Cells were pretreated with JPM-OEt (50 μM) (+) or with control DMSO (0.1%) (−) for 2 h and labeled by addition of ^64Cu-Z-FK(DOTA)-AOMK (555 KBq, 15 μCi) to culture medium for 2 h. Cells were collected, lysed and analyzed after SDS-PAGE. The labeled proteases were visualized by scanning of the gel with a Typhoon 9410 imager.
Before applying the radiolabel probe in vivo we first tested the ability of the probe to label multiple tumor cell lines grown in vitro. We initially examined the labeling of the human breast cancer cell line MBA-MB-435 and a mouse myoblastoma cell line that had been transformed by overexpression of the ras oncogene (C2C12/Ras). Both of these cell lines were used for in vivo imaging studies with the NIRF-labeled cysteine cathepsin probes. To confirm earlier studies of these cells using the NIRF probes we labeled them with general Cy5-labeled probe GB123 (FIG. 1C). […] Labeling of the same cells with ^64Cu-Z-FK(DOTA)-AOMK confirmed that the DOTA produced a similar labeling pattern to that observed for the NIRF probe GB123.
C2C12/Ras and MDA-MB-435 cells (0.25 M each well) were seeded in a six-well plate one day before the study. Cells were pretreated with the general papain family protease inhibitor JPM-OEt (50 μM^28) or with control DMSO (0.1%) for 1 h and labeled by addition of ^64Cu-Z-FK(DOTA)-AOMK (555 KBq, 15 μCi) to culture medium for 2 h. Cells was then washed with PBS and lysed. Equal amounts of protein per lane were separated by 12% SDS-PAGE. […] The labeled bands were quantified with ImageJ 1.36b (public domain software from National Institute of Health).

C2/C12 Ras tumors = test: Tumor uptake of 64Cu-labeled cathepsin probes in tumor-bearing mice (FIG. 7); assay type: in vivo, mouse; conditions: 64Cu-labeled probe; for tumor uptake after 2 hrs / tumor uptake after 24 hours: IV
Experimental: Mice bearing tumors derived from […] C2/C12 Ras transformed cells were IV injected with ^64Cu-labeled probes. Images and total probe accumulation in tumors (arrows) is shown. For purposes of reproduction, the image is converted to black and white and reversed.
Essentially, two to four weeks prior to imaging MDA-MB 231 or C2C12/ras cells (a myoblast cell line wherein ras blocks differentiation) at 2×10^6 cell per spot were injected subcutaneous to the back of Balb-c nude mice.
Mice bearing tumors of similar size were injected intravenous via the tail vein with a DMSO/PBS solution of the compound to be tested. DMSO/PBS was locally injected directly into tumors in indicated mice, 15 minutes prior to probe injection. Fluorescent intensity as photons per second per centimeter square per steradian (p/s/cm2/sr) was recorded from living mice. Images were taken at various time points after probe injection using an IVIS 200 imaging system equipped with a Cy5.5 filter. Other protocols are known and may be adapted for administration and imaging in vivo using the present compounds. Another protocol for mouse studies is given in Joyce et al. “Cathepsin cysteine proteases are effectors of invasive growth and angiogenesis during multistage tumorigenesis,” Cancer Cell 5:443-452 (May 2004), at page 452.
In an initial attempt to make PET compatible cathepsin probes, a Cy5 tag was replaced with a group that could be used to bind ^64Cu. This was compound ^64Cu-DOTA-FFK-AOMK (GB172). […] Without wishing to be bound by any theory, it was reasoned that this poor accumulation in tumors was likely due to changes in the pharmacokinetic (PK) and cell permeability properties as the result of removal of the large, hydrophobic fluorophore molecule. While the improved uptake of the probe having both the macrocyclic chelator and the polyaromatic functionality (Cy5), it is thought that the combination of a bulky chelator and a substituted polyaromatic provided the probe molecule with provided a balance of mass, charge and hydrophobicity that gave the probe increased permeability through the outer lipid membranes of the cells. Following this logic, a version of GB-123 that retains the Cy5 fluorophore and also contains a site for attachment of the PET imaging tag was prepared. This was 64 Cu (GB170).

human cathepsin L = human cathepsin L (Homo sapiens, UniProt P07711); test: Kinetic inhibition study, cathepsin L; assay type: biochemical; conditions: kinetic inhibition studies
From the text: (§1) We attached the chelator and radionuclide to the probe at the P1 lysine side-chain. By attaching the radiolabel to a side chain, it is less likely to interfere with the binding of the AOMK warhead to the active protease. Previous work has shown that the majority of critical substrate interactions take place in the P2 position of the papain family proteases.
(§2) The kinetics of inhibition may be determined by progress curve method under pseudo-first order conditions with at least 10-fold molar excess of inhibitor. Recorded progress curves are analysed by non-linear regression according to the following equation (Bieth, J. G. Theoretical and practical aspects of proteinase inhibition kinetics. Methods Enzymol, 248, 59-84 (1995).) [P]=vz(1−e^−k·t)/k • where [P] is the product, vz is the velocity at time zero and k is the pseudo first order rate constant. Apparent rate constant (kapp) was determined from the slope of plot k versus [I]. […]
(§3) Activity of human cathepsin L is measured using the fluorogenic substrate Z-FRAMC37 (Bachem, USA) (Km=7.1 μM) and cathepsin B is assayed against the fluorogenic substrate Z-RR-AMC38 (Bachem, USA) (Km=114 μM). […] Increase of fluorescence (370 nm excitation, 460 nm emission) is continuously monitored for 30 minutes by Spectramax M5 spectrofluorimeter. (Molecular Devices, USA) and inhibition curves were recorded. […]

cathepsin B [1] = target: cathepsin B (Homo sapiens, UniProt P07858); test: Kinetic inhibition study, cathepsin B; assay type: biochemical; conditions: kinetic inhibition studies
From the text: as §1, §2, §3

[2] = Octanol/water partition coefficient; assay type: physicochemical; conditions: octanol / PBS pH 7.4, repeated 3 times
Experimental: Octanol/water partition coefficient. To determine the lipophilicity of ^64Cu-Z-FK(DOTA)-AOMK, approximately 370 kBq of ^64Cu-labeled complex in 500 μl of PBS (pH 7.4) was added to 500 μl of octanol in an eppendorf microcentrifuge tube. The resulting biphasic system was mixed vigorously for 10 min and left at room temperature for another 60 min. The two phases were then separated by centrifugation at 2000 g for 5 min (model 5415R Eppendorf microcentrifuge; Brinkman, Westbury, N.Y.). From each layer, an aliquot of 100 μl was removed and counted in a γ-counter (Packard Instruments). The partition coefficient (log P) was then calculated as a ratio of counts in the octanol fraction to the counts in the water fraction. The experiment was repeated 3 times. The lipophilicity of the probe affects its in vivo pharmacokinetics, and should be modest (˜0), with hydrophobic and hydrophilic groups present. For further details, see Lin et al., “Role of Pharmacokinetics and Metabolism in Drug Discovery and Development,” Pharmacological Reviews, Vol. 49, Issue 4, 403-449, December 1997.

C2C12/Ras tumors = test: Biodistribution in nude mice bearing subcutaneous C2C12/Ras tumors; assay type: in vivo, mouse; conditions: C2C12/Ras tumor mice, i.v. 740 kBq
Experimental: All animal studies were carried out in compliance with Federal and local institutional rules for the conduct of animal experimentation. Female athymic nude mice (nu/nu) were obtained from Charles River Laboratories (Boston, Mass.) at 7-8 weeks old and kept under sterile conditions. The nude mice were inoculated subcutaneously in the right shoulder with 2×10^6 cultured C2C12/Ras cells or 5×10^6 MDA-MB-435 cells. When the tumors reach 0.5-0.8 cm in diameter, the tumor bearing mice were subjected to in vivo biodistribution studies. For biodistribution studies, the mice bearing C2C12/Ras or MDA-MB-435 tumor xenografts (n=3 for each group) were injected with 740 KBq (20 μCi) of ^64Cu labeled tracer through the tail vein and sacrificed at different time points post injection (p.i.). Tumor and normal tissues of interest were removed and weighed, and their radioactivity was measured in a gamma-counter. The radioactivity uptake in the tumor and normal tissues was expressed as a percentage of the injected radioactive dose per gram of tissue (% ID/g).
We next examined the overall biodistribution of ^64Cu-Z-FK(DOTA)-AOMK using athymic nude mice carrying subcutaneously grafted C2C12/Ras and MDA-MB-435 tumors. […] Importantly, we observed rapid accumulation of radioactivity in the C2C12/Ras tumors expressing high levels of cysteine cathepsins (0.35±0.13% ID/g at 0.5 h p.i.). This activity remained in the tumors resulting in an uptake of 0.27±0.05% ID/g at 24 h p.i. For the MDA-MB-435 tumors with lower cysteine cathepsin expression, tumor uptake was approximately 2 fold lower at each time point relative to the C2C12/Ras tumors (P<0.05). […] The highest radioactivity was found in the liver due to high endogenous expression of various cysteine cathepsins. Moderate renal accumulation was also observed at all times in both tumor models.
Data are expressed as the percentage administered activity (injected dose) per gram of tissue (% ID/g) after intravenous injection of 740 kBq (20 μCi) of ^64Cu-Z-FK(DOTA)-AOMK at 0.5, 2, and 24 h pi (n=3). Significant lower tumor uptake and tumor/blood, tumor/muscle ratio in MDA-MB-435 breast cancer (P<0.05) were observed.

Cathepsin Z, H, J, C = conditions: Kato et al. Nat Chem Biol 2005; cited from earlier work
cathepsin B [3] = conditions: Kato et al. Nat Chem Biol 2005; cited from earlier work

Sequence of human cathepsin L (P07711 114-333): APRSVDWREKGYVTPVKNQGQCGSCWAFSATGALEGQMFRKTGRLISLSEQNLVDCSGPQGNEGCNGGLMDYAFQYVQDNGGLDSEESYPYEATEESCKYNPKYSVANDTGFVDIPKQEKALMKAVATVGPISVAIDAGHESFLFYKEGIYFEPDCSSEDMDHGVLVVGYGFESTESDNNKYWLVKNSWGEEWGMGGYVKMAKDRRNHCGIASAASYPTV

Compound: CCN1C(=CC=CC=CC2=[N+](CCCCCC(=O)NCCCC[C@H](NC(=O)[C@H](Cc3ccccc3)NC(=O)OCc3ccccc3)C(=O)COC(=O)c3c(C)cccc3C)c3ccc(S(=O)(=O)O)cc3C2(C)C)C(C)(C)c2cc(S(=O)(=O)O)ccc21 [GB123]
Cathepsin B and L activity of C2C12/Ras relative to MDA-MB-435 cells by probe labeling (cathepsins B and L; cells labeled with Cy5-labeled probe): 7.4 fold

Compound: CC[N+]1=C(/C=C/C=C/C=C2\N(CCCCCC(=O)NCCCC[C@H](NC(=O)[C@H](Cc3ccccc3)NC(=O)[C@H](Cc3ccccc3)NC(=O)CN3CCN(CC(=O)O)CCN(CC(=O)O)CCN(CC(=O)O)CC3)C(=O)COC(=O)c3c(C)cccc3C)c3ccc(S(=O)(=O)O)cc3C2(C)C)C(C)(C)c2cc(S(=O)(=O)O)ccc21 [GB 170, DOTA-FFK(Cy5)-AOMK]
Tumor uptake in PET studies (in words) (C2/C12 Ras tumors): dramatically increased uptake in tumor tissues | tumor uptake after 2 hrs (C2/C12 Ras tumors): 3.17 ± 0.05 | tumor uptake after 24 hours (C2/C12 Ras tumors): 1.56 ± 0.23

Tumor uptake in PET studies (in words) (C2/C12 Ras tumors): overall probe uptake was very low | tumor uptake after 2 hrs (C2/C12 Ras tumors): 0.41 ± 0.07 | tumor uptake after 24 hours (C2/C12 Ras tumors): 0.32 ± 0.04
Compound: Cc1cccc(C)c1C(=O)OCC(=O)[C@H](CCCCN)NC(=O)[C@H](Cc1ccccc1)NC(=O)[C@H](Cc1ccccc1)NC(=O)CN1CCN(CC(=O)O)CCN(CC(=O)O)CCN(CC(=O)O)CC1 [GB 172, DOTA-FFK-AOMK]

Compound: CC[N+]1=C(/C=C/C=C/C=C2\N(CCCCCC(=O)NCCCC[C@H](NC(=O)[C@H](Cc3ccccc3)NC(=O)[C@H](Cc3ccccc3)NC(=O)CN3CCN(CC(=O)O)CCN(CC(=O)O)CCN(CC(=O)O)CC3)C(N)=O)c3ccc(S(=O)(=O)O)cc3C2(C)C)C(C)(C)c2cc(S(=O)(=O)O)ccc21 [GB 173, DOTA-FFK(Cy5)-AOMK-Amide]
tumor uptake after 2 hrs (C2/C12 Ras tumors): 1.71 ± 0.08 | tumor uptake after 24 hours (C2/C12 Ras tumors): 0.37 ± 0.13

Loss of potency towards cathepsin L on modification of the P1 lysine (human cathepsin L): 100 fold | Loss of potency for cathepsin B on modification of the P1 lysine (cathepsin B [1]): 30 fold
Compound: Cc1cccc(C)c1C(=O)OCC(=O)[C@H](CCCCN)NC(=O)[C@H](Cc1ccccc1)NC(=O)OCc1ccccc1 [NH2-GB11]

log P (octanol-water partition coefficient) [2]: −0.10±0.04 | Biodistribution: Tumor (C2C12/Ras tumors; 2 h p.i.): 0.30±0.03 % ID/g | Biodistribution: Tumor (C2C12/Ras tumors; 24 h p.i.): 0.27±0.05 % ID/g
Compound: Cc1cccc(C)c1C(=O)OCC(=O)[C@H](CCCCNC(=O)CN1CCN(CC(=O)O)CCN(CC(=O)O)CCN(CC(=O)O)CC1)NC(=O)[C@H](Cc1ccccc1)NC(=O)OCc1ccccc1 [Z-FK(DOTA)-AOMK]

Compound: Cc1cccc(C)c1C(=O)OCC(=O)[C@H](CCCNC(=N)N)NC(=O)[C@H](Cc1ccccc1)NC(=O)OCc1ccccc1 [Z-FR-AOMK]
Activity against cathepsins Z, H, J, C (Cathepsin Z, H, J, C): not cathepsins Z, H, J, H or C; also recorded: not Cathepsin Z, H, J, C or H | Activity against cathepsin B (cathepsin B [3]): active only against cathepsin B; also recorded: inhibits cathepsin B

Compound: JPM-OEt
Effect of inhibitor pretreatment on probe labeling of protease targets (cathepsins B and L; cells pretreated with 50 μM inhibitor, then labeled with 64Cu-Z-FK(DOTA)-AOMK): complete loss of labeling
